This note sets out measurements from PubChem BioAssay AID330 (DTP/NCI, 2004).

Each structure is given as a SMILES string. Where “and” joins values, the source holds several entries; their conditions need not be identical. Identical values can stand only once. Inconclusive results and toxic doses are left out.

This assay has as its system P388 leukemia ip, CD2F1 mice, survival T/C. The assay is described as follows: NCI In Vivo Anticancer Drug Screen. Data for tumor model P388 Leukemia (intraperitoneal) in CD2F1 (CDF1) mice. The following applies: endpoint: median survival time, higher = longer survival. The gist of the method: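 Mice carrying the transplanted tumor received test compound or vehicle. Survival was recorded in each group, and the value is the treated-group measurement divided by that of the vehicle-treated control group.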

Setting [1] is: dose: 50.0 mg/kg/injection, schedule: Q01DX005 (ip), vehicle: Klucel (hydroxypropylcellulose) (HPC).
[2] abbreviates: dose: 100.0 mg/kg/injection, schedule: Q01DX005 (ip), vehicle: Klucel (hydroxypropylcellulose) (HPC).
Where [3] appears, read: dose: 200.0 mg/kg/injection, schedule: Q01DX005 (ip), vehicle: Klucel (hydroxypropylcellulose) (HPC).
Setting [4] is: dose: 25.0 mg/kg/injection, schedule: Q04DX003 (ip), vehicle: saline with Tween-80.
Setting [5] is: dose: 50.0 mg/kg/injection, schedule: Q04DX003 (ip), vehicle: saline with Tween-80.

As to `COC(=O)/C=C/c1cccc[n+]1[O-]`, the T/C was 107 % of control (dose: 25.0 mg/kg/injection, schedule: Q01DX005 (ip), vehicle: water); 107 % of control (dose: 50.0 mg/kg/injection, schedule: Q01DX005 (ip), vehicle: water); 109 % of control (dose: 100.0 mg/kg/injection, schedule: Q01DX005 (ip), vehicle: water); 107 % of control (dose: 200.0 mg/kg/injection, schedule: Q01DX005 (ip), vehicle: water).
Turning to `CCc1cccc(CC)c1-n1nnc(C(=O)c2ccccc2)c1C(=O)OC`, the T/C (dose: 60.0 mg/kg/injection, schedule: Q01DX005 (ip), vehicle: Klucel + Tween-80) is 100 % of control; the T/C (dose: 120.0 mg/kg/injection, schedule: Q01DX005 (ip), vehicle: Klucel + Tween-80) was 109 % of control; the T/C (dose: 240.0 mg/kg/injection, schedule: Q01DX005 (ip), vehicle: Klucel + Tween-80) was 102 % of control.
On to `Cc1ccc(N=C(c2ccccc2)C2C(=O)c3ccccc3C2=O)cc1`, for which the T/C under setting [1] was 97 % of control, the T/C under setting [2] was 97 % of control and the T/C under setting [3] was 94 % of control.
Turning to `CCOC(=O)N1CCc2cc(OC)c(OC)cc2C1(O)Cc1cc(OC)c(OC)cc1Br` (stereo unspecified), the T/C runs as follows: (dose: 25.0 mg/kg/injection, schedule: Q01DX009 (ip), vehicle: other) 109 % of control; (dose: 50.0 mg/kg/injection, schedule: Q01DX009 (ip), vehicle: other) 106 % of control; (dose: 100.0 mg/kg/injection, schedule: Q01DX009 (ip), vehicle: other) 103 % of control; (dose: 200.0 mg/kg/injection, schedule: Q01DX009 (ip), vehicle: other) 113 % of control; (dose: 400.0 mg/kg/injection, schedule: Q01DX009 (ip), vehicle: other) 113 % of control.
As to `CCOC(=O)N1C(C)CCCC1C` (stereo unspecified), the T/C reads like this: (dose: 60.0 mg/kg/injection, schedule: Q01DX005 (ip), vehicle: saline) 106 % of control; (dose: 120.0 mg/kg/injection, schedule: Q01DX005 (ip), vehicle: saline) 105 % of control; (dose: 240.0 mg/kg/injection, schedule: Q01DX005 (ip), vehicle: saline) 95 % of control.
In the case of `COC(=O)c1c(OC)cc2c(Cl)c3c(c(O)c2c1C)C(=O)[C@@]1(O)C(=O)C=C(OC)[C@H](O)[C@@]1(O)C3=O`, the T/C reads like this: (dose: 12.5 mg/kg/injection, schedule: Q01DX005 (ip), vehicle: saline with Tween-80) 104 % of control; (dose: 25.0 mg/kg/injection, schedule: Q01DX005 (ip), vehicle: saline with Tween-80) 109 % of control; (dose: 50.0 mg/kg/injection, schedule: Q01DX005 (ip), vehicle: saline with Tween-80) 95 % of control; (dose: 100.0 mg/kg/injection, schedule: Q01DX005 (ip), vehicle: saline with Tween-80) 104 % of control; (dose: 200.0 mg/kg/injection, schedule: Q01DX005 (ip), vehicle: saline with Tween-80) 110 % of control.
Take `COc1c(C)n(CCCCCCn2ccc(=O)c(OC)c2C)ccc1=O`: the T/C is 92 % of control under setting [1], 108 % of control under setting [2] and 93 % of control under setting [3].
With `Cc1ccc2cccc([N+](=O)[O-])c2n1`, the T/C is, setting by setting: (dose: 12.5 mg/kg/injection, schedule: Q04DX003 (ip), vehicle: saline with Tween-80) 100 % of control; under setting [4], 104 % of control; under setting [5], 95 % of control.
`CNc1cc(NC)c2c(c1N)C(=O)c1ccccc1C2=O`: the T/C is, setting by setting: (dose: 50.0 mg/kg/injection, schedule: Q04DX002 (ip), vehicle: Klucel (hydroxypropylcellulose) (HPC)) 103 % of control; (dose: 100.0 mg/kg/injection, schedule: Q04DX002 (ip), vehicle: Klucel (hydroxypropylcellulose) (HPC)) 100 % of control; (dose: 200.0 mg/kg/injection, schedule: Q04DX002 (ip), vehicle: Klucel (hydroxypropylcellulose) (HPC)) 101 % of control.
As for `Nc1nc(Br)nc2c1ncn2C1CC(O)C(CO)O1` (stereo unspecified), the T/C runs as follows: (dose: 1.5 mg/kg/injection, schedule: Q01DX005 (ip), vehicle: suspension in saline) 118 % of control; (dose: 3.0 mg/kg/injection, schedule: Q01DX005 (ip), vehicle: suspension in saline) 121 % of control; (dose: 15.0 mg/kg/injection, schedule: Q01DX005 (ip), vehicle: suspension in saline) 108 % of control; (dose: 15.0 mg/kg/injection, schedule: Q03HX009 (ip), vehicle: saline) 153 % of control and 155 % of control; (dose: 30.0 mg/kg/injection, schedule: Q03HX009 (ip), vehicle: saline with Tween-80) 164 % of control; (dose: 30.0 mg/kg/injection, schedule: Q03HX009 (ip), vehicle: saline) 167 % of control and 181 % of control. Besides, the T/C was 117 % of control (dose: 60.0 mg/kg/injection, schedule: Q01DX005 (ip), vehicle: suspension in saline); 155 % of control (dose: 60.0 mg/kg/injection, schedule: Q03HX009 (ip), vehicle: saline with Tween-80); 165 % of control and 172 % of control (dose: 60.0 mg/kg/injection, schedule: Q03HX009 (ip), vehicle: saline); 122 % of control (dose: 120.0 mg/kg/injection, schedule: Q01DX005 (ip), vehicle: suspension in saline); 157 % of control (dose: 120.0 mg/kg/injection, schedule: Q03HX009 (ip), vehicle: saline with Tween-80); 172 % of control (dose: 120.0 mg/kg/injection, schedule: Q03HX009 (ip), vehicle: saline).
Regarding `CCCNC(=S)NN1C2CSC1CS2`, the T/C (dose: 50.0 mg/kg/injection, schedule: Q01DX009 (ip), vehicle: saline) was 89 % of control and the T/C (dose: 100.0 mg/kg/injection, schedule: Q01DX009 (ip), vehicle: saline) was 99 % of control.
For the compound `CC1(C)C(=O)c2cc(Cl)ccc2C1(C)C`, the T/C is, setting by setting: under setting [1], 103 % of control; under setting [2], 102 % of control; under setting [3], 97 % of control.
For `CN(N=O)C(=O)Nc1ccc(C(=O)O)cc1`, the T/C (dose: 25.0 mg/kg/injection, schedule: Q01DX009 (ip), vehicle: saline with Tween-80) was 181 % of control; the T/C under setting [4] is 155 % of control; the T/C (dose: 50.0 mg/kg/injection, schedule: Q01DX009 (ip), vehicle: saline with Tween-80) is 181 % of control; the T/C under setting [5] was 180 % of control; the T/C (dose: 66.0 mg/kg/injection, schedule: Q04DX003 (ip), vehicle: saline with Tween-80) is 159 % of control; the T/C (dose: 100.0 mg/kg/injection, schedule: Q04DX003 (ip), vehicle: saline with Tween-80) is 172 % of control and 200 % of control.
Take `Cn1c2c(c3nc(N)nc(N)c3c1=O)CCc1ccccc1-2`: the T/C reads like this: (dose: 25.0 mg/kg/injection, schedule: Q01DX005 (ip), vehicle: distilled water + alcohol) 102 % of control; (dose: 50.0 mg/kg/injection, schedule: Q01DX005 (ip), vehicle: distilled water + alcohol) 96 % of control; (dose: 100.0 mg/kg/injection, schedule: Q01DX005 (ip), vehicle: distilled water + alcohol) 94 % of control; (dose: 200.0 mg/kg/injection, schedule: Q01DX005 (ip), vehicle: distilled water + alcohol) 103 % of control.
For `CC[C@@]1(O)C[C@H](OC2CC(N(C)C)C(O)C(C)O2)c2c(O)c3c(c(O)c2[C@H]1OC1CC(N(C)C)C(O)C(C)O1)C(=O)c1cccc(O)c1C3=O` (stereo partly specified), the T/C (dose: 0.03 mg/kg/injection, schedule: Q01DX009 (ip), vehicle: other) is 118 % of control; the T/C (dose: 0.03 mg/kg/injection, schedule: Q04DX003 (ip), vehicle: other) is 112 % of control; the T/C (dose: 0.06 mg/kg/injection, schedule: Q04DX003 (ip), vehicle: other) is 114 % of control; the T/C (dose: 0.13 mg/kg/injection, schedule: Q04DX003 (ip), vehicle: other) was 124 % of control; the T/C (dose: 0.25 mg/kg/injection, schedule: Q04DX003 (ip), vehicle: other) is 121 % of control; the T/C (dose: 0.5 mg/kg/injection, schedule: Q04DX003 (ip), vehicle: other) was 93 % of control.
Take `O=C(Cc1ccc(OCc2ccccc2)cc1)NCc1ccc2c(c1)OCO2`: the T/C runs as follows: (dose: 15.0 mg/kg/injection, schedule: Q01DX005 (ip), vehicle: saline with Tween-80) 96 % of control; (dose: 30.0 mg/kg/injection, schedule: Q01DX005 (ip), vehicle: saline with Tween-80) 91 % of control; (dose: 60.0 mg/kg/injection, schedule: Q01DX005 (ip), vehicle: saline with Tween-80) 89 % of control.
As to `Cc1c2noc1CCCCCCCCCCC2`, the T/C is 104 % of control under setting [1], 110 % of control under setting [2] and 102 % of control under setting [3].
